Data as given in ChEMBL document CHEMBL4219088, “Novel 4-aminoquinazoline derivatives induce growth inhibition, cell cycle arrest and apoptosis via PI3Kα inhibition” (Bioorg Med Chem, 2018).

Legend:
Type in all cases: functional, cell-based
HCT-116 = assay: Antiproliferative activity against human HCT116 cells after 72 hrs by sulforhodamine B assay; details: HCT-116, 72 h
MCF7 = assay: Antiproliferative activity against human MCF7 cells after 72 hrs by sulforhodamine B assay; details: MCF7, 72 h
A549 = assay: Antiproliferative activity against human A549 cells after 72 hrs by sulforhodamine B assay; details: A549, 72 h
MDA-MB-231 = assay: Antiproliferative activity against human MDA-MB-231 cells after 72 hrs by sulforhodamine B assay; details: MDA-MB-231, 72 h
SK-HEP1 = assay: Antiproliferative activity against human SKHEP1 cells after 72 hrs by sulforhodamine B assay; details: SK-HEP1, 72 h
SNU-638 = assay: Antiproliferative activity against human SNU638 cells after 72 hrs by sulforhodamine B assay; details: SNU-638, 72 h

- IC50 (HCT-116): 1440 nM
- IC50 (MCF7): 1020 nM
- IC50 (A549): 940 nM
- IC50 (MDA-MB-231): 710 nM
- IC50 (SK-HEP1): 4720 nM
- IC50 (SNU-638): 620 nM
SMILES: COc1ncc(-c2ccc3ncnc(NCCN(C)C)c3c2)cc1NS(=O)(=O)c1ccc(F)cc1F
